Reference: patent publication US20030215817A1, “Modulation of gene expression in formation of fatty atherosclerotic lesions” (priority 2003, published 2003)
Counter-ions that a name gives are not always drawn.

Test system: Rec1_6 (MspI ATCC 176) mRNA
Assay: quantified RT-PCR, Rec1_6
Assay type: in vivo, rabbit
Settings: for Relative Abundance Rec1_6, 20 pg F: hypercholesterolemic plus lercanidipine racemate, eight weeks, H2 (normocholesterolemic)=1.0
Procedure: Nineteen of the isolated DST clones were further validated using RT-PCR analyses; the data are presented in FIGS. 6-24 and in Tables 5-23, below. For each DST examined, the optimal annealing temperature and reagent conditions were determined for the corresponding set of primers (see Table 25) based on results from a preliminary experiment. In eight separate reactions, each set of primers was assayed to find the optimal conditions by adjusting the following four parameters: primer concentration, dNTP concentration, MgCl2 concentration, and number of Taq polymerase units. Once optimal conditions were determined, each DST was run in duplicate multiple simultaneous reactions which usually included at least four dilutions of template (cDNA library), plus control reactions lacking template, and six sequential data points for numbers of cycles. Reactions were performed using “Hot Start” PCR with the Clontech TaqStart antibody system (Cat. #5400-1). Each reaction contained 1 ml of the cDNA library dilution as template, determined amounts of AmpliTaq DNA polymerase (cat. #N808-0156), MgCl2, dNTPs (GibcoBRL cat. #10297-018), primer, and Clontech TaqStart Antibody in a 20 ml final reaction volume using 10×Taq buffer II (without MgCl2). Typically, a master mix containing all components except the template was prepared and aliquoted. Various templates were then added to these master mix samples and 20 ml volumes were subsequently dispensed into individual reaction tubes. At various times during the PCR run, tubes were removed sequentially on a predetermined schedule in order to quantitate expression of the target DST over a “window” of cycle times. After amplification, the samples were quantified via fluorimetry. PCR was performed at annealing temperatures that were five degrees above the average melting temperature of each primer pair. For primers greater than 10 bases (in a 0.05M salt solution), melting temperature was calculated using the following formula: Tm=59.9+41[% GC]−[675/Primer Length], where %GC is the decimal value. Following determination of the average melting temperature of the primer pair, the annealing temperature was determined by adding five degrees to the average melting temperature. PCR was performed using the following program: 1) 95 degrees Celsius, 3 minutes; 2) 95 degrees Celsius, 30 seconds; 3) TM+5 degrees Celsius, 30 seconds; 4) 72 degrees Celsius, for a time dependent on target length at 16 bp/second; 5) repeat steps 2-4 33 more cycles; 6) 72 degrees Celsius, 3 minutes; 7) 14 degrees Celsius, forever. Following temperature cycling, 2 ml of the PCR reaction was added to 140 ml of a 1:280 dilution of PicoGreen (Molecular Probes cat. #P-11495 (10×100 ml)) in TE pH 7.5 in a 96-well Costar UV microtiter plate (Fisher cat. #07-200623). The samples were mixed gently for 1.5 minutes and allowed to equilibrate at room temperature in the dark for 15 minutes. The concentration of the PCR products was quantified by fluorimetry using a PerSeptive Biosystems CytoFluor series 4000 multi-well plate reader. Background fluorescence was determined by using duplicate control samples that were cycled with all reaction components except the template. The mean value from these duplicate background control samples was subtracted from the corresponding experimental values prior to analyzing results. The sensitivity of the PicoGreen dsDNA assay is reported to be 250 pg/ml (50 pg dsDNA in a […] assay volume) using a fluorescence microplate reader such as was used in these measurements. […]

## COC(=O)C1=C(C)NC(C)=C(C(=O)OC(C)(C)CN(C)CCC(c2ccccc2)c2ccccc2)C1c1cccc([N+](=O)[O-])c1 (racemic) [lercanidipine, lercanidipine hydrochloride]
Cycle 24
  Relative Abundance Rec1_6, 20 pg F: 3.1
Cycle 26
  Relative Abundance Rec1_6, 20 pg F: 2.2
Cycle 28
  Relative Abundance Rec1_6, 20 pg F: 2.1
Cycle 30
  Relative Abundance Rec1_6, 20 pg F: 1.7
Cycle 32
  Relative Abundance Rec1_6, 20 pg F: 1.4
Cycle 34
  Relative Abundance Rec1_6, 20 pg F: 1.5
Hypercholesterolemic animals receiving lercanidipine racemate
  expression of Rec1_6 at 8 weeks (RT-PCR study), in words: somewhat more elevated
